# Read-outs that look alike come from different tables or passages of the source.
# Tests used:
# SOS1 = SOS1 (Homo sapiens (Human), UniProt Q07889); experiment: Ras-SOS interaction assay (HTRF); format: biochemical
# From the text: The ability of any compound of the present disclosure to reduce a Ras protein signaling output by, e.g., interfering or disrupting interaction (or binding) between SOS1 and a Ras protein can be assessed in vitro. For example, the equilibrium interaction of human SOS1 (hSOS1) with human wildtype Kras or K-Ras mutant (e.g., hK-Ras G12C mutant, or hK-RasG12C) can be assessed as a proxy or an indication for a subject compound's ability to inhibit SOS. Detection of such interaction is achieved by measuring homogenous time-resolved fluorescence resonance energy transfer (HTRF) from (i) a fluorescence resonance energy transfer (FRET) donor (e.g., antiGST-Europium) that is bound to GST-tagged K-RasG12C to (ii) a FRET acceptor (e.g., anti-6His-XL665) bound to a His-tagged hSOS1.
# The assay buffer can contain 5 mM HEPES pH 7.4, 150 mM NaCl, 10 mM EDTA, 1 mM DTT, 0.05% BSA, 0.0025% (v/v) Igepal and 100 mM KF. A Ras working solution is prepared in assay buffer containing typically 10 nM of the protein construct (e.g., GST-tagged hK-RasG12C) and 2 nM of the FRET donor (e.g., antiGST-Eu(K) from Cisbio, France). A SOS1 working solution is prepared in assay buffer containing typically 10 nM of the protein construct (e.g., His-hSOS1) and 10 nM of the FRET acceptor (e.g., anti-6His-XL665 from Cisbio, France). An inhibitor control solution is prepared in assay buffer containing 10 nM of the FRET acceptor without the SOS1 protein.
# A fixed reaction mixture with or without test compound is transferred into a 384-well plate. Ras working solution is added to all wells of the test plate. SOS1 working solution is added to all wells except for those that are subsequently filled the inhibitor control solution. After approximately 60 min incubation, the fluorescence is measured with a M1000Pro plate reader (Tecan) using HTRF detection (excitation 337 nm, emission 1: 620 nm, emission 2: 665 nm). Compounds are tested in duplicates at different concentrations (for example, 10 μM, 2.5 μM, 0.63 μM, 0.16 μM, 0.04 μM, 0.01 μM test compound). The ratiometric data (i.e., emission 2 divided by emission 1) is used to calculate IC50 values against SOS1 using GraphPad Prism (GraphPad software).
# [1] = test system: MIA PaCa-2 cells (K-Ras G12C); experiment: Ras-SOS cellular growth inhibition assay (CellTiter-Glo, 3D); format: cell-based
# Description: MIA PaCa-2 (ATCC CRL-1420) and NCI-H1792 (ATCC CRL-5895) cell lines comprise a G12C mutation can be used to assess Ras cellular signaling in vitro, e.g., in response to a subject compound of the present disclosure. […] Cell culture medium (comprising, for example, MIA PaCa-2 cells) is prepared with DMEM/Ham's F12 (e.g., with stable Glutamine, 10% FCS, and 2.5% Horse Serum. NCI-H1792 culture medium is prepared with RPMI 1640 (e.g., with stable Glutamine) and 10% FCS. A CellTiter-Glo (CTG) luminescent based assay (Promega) is used to assess growth of the cells, as a measurement of the ability of the compounds herein to inhibit Ras signaling in the cells. The cells (e.g., 800-1200 per well) are seeded in their respective culture medium in standard tissue culture-treated ultra-low attachment surface 96-well format plates (Corning Costar #3474). The day after plating, cells are treated with a dilution series (e.g., a 9 point 3-fold dilution series) of the compounds herein (e.g., approximately 125 μl final volume per well). Cell viability can be monitored (e.g., approximately 5 days later) according to the manufacturer's recommended instructions, where the CellTiter-Glo reagent is added (e.g., approximately 65 μl), vigorously mixed, covered, and placed on a plate shaker (e.g., approximately for 20 min) to ensure sufficient cell lysis prior to assessment of luminescent signal. The IC50 values are determined using the four-parameter fit. The resulting IC50 value is a measurement of the ability of the compounds herein to reduce cell growth of Ras-driven cells as representative tumor cells.
# [2] = test system: NCI-H1975 cells (EGFR T790M L858R); experiment: EGFR-SOS cellular inhibition assay (CellTiter-Glo, 3D); format: cell-based
# [3] = K-RasG13D utilized, read-out: IC50 inhibition of SOS
# [4] = K-RasG13D, read-out: IC50 value against SOS1
# [5] = Homo sapiens, MIA PaCa-2, 120 h, MIA PaCa-2, 3D proliferation, about 5 days, read-out: Bio-Cell-Prolif-3D (MiaPaca2 IC50)
# [6] = Homo sapiens, MIA PaCa-2, MIA PaCa-2, read-out: IC50 in inhibiting MIA PaCa-2 cell growth
# [7] = Homo sapiens, 120 h, NCI-H1975, 3D proliferation, about 5 days, read-out: Bio-Cell-Prolif-3D (H1975 IC50)
# [8] = Homo sapiens, NCI-H1975, EGFR T790M L858R, read-out: IC50 in inhibiting growth of NCI-H1975 cell line
# SOS1, sequence (Q07889 564-1049): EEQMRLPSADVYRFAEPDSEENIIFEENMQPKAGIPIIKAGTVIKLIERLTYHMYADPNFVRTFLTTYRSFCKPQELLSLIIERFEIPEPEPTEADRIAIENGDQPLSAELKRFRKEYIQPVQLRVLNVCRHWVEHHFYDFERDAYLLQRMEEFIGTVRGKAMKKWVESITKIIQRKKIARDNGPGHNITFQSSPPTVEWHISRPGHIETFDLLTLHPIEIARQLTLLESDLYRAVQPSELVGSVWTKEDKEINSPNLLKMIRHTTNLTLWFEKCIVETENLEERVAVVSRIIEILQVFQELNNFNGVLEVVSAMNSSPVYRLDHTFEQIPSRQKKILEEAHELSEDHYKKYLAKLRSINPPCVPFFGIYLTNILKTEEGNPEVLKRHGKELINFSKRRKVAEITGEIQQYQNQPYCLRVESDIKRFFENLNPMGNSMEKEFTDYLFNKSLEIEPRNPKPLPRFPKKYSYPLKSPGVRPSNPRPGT
Molecule,IC50 (SOS1; [3]) [nM],IC50 (SOS1; [4]) [nM],"IC50 [1, 5] [nM]","IC50 [1, 6] [nM]","IC50 [2, 7] [nM]","IC50 [2, 8] [nM]","IC50 ([1]; MIA PaCa-2, 3D proliferation, about 5 days, read-out: Bio-Cell-Prolif-3D (MiaPaca2 IC50)) [nM]","IC50 ([1]; MIA PaCa-2, read-out: IC50 in inhibiting MIA PaCa-2 cell growth) [nM]","IC50 ([2]; NCI-H1975, 3D proliferation, about 5 days, read-out: Bio-Cell-Prolif-3D (H1975 IC50)) [nM]","IC50 ([2]; NCI-H1975, EGFR T790M L858R, read-out: IC50 in inhibiting growth of NCI-H1975 cell line) [nM]"
"COc1nc2nc(C)nc(N[C@H](C)c3cccc(C(F)(F)F)c3F)c2cc1C1CCN(C(=O)CO)CC1 [Compound 304, (R)-1-(4-(4-((1-(2-fluoro-3-(trifluoromethyl)phenyl)ethyl)amino)-7-methoxy-2-methylpyrido[2,3-d]pyrimidin-6-yl)piperidin-1-yl)-2-hydroxyethan-1-one]",< 100,< 50,≤ 1000,< 500,≤ 1000,< 500,–,–,–,–
"COc1nc2nc(C)nc(N[C@H](C)c3cccc(C(F)(F)C(C)(C)O)c3F)c2cc1N1CCS(=O)(=O)CC1 [Compound 169, (R)-4-(4-((1-(3-(1,1-difluoro-2-hydroxy-2-methylpropyl)-2-fluorophenyl)ethyl)amino)-7-methoxy-2-methylpyrido[2,3-d]pyrimidin-6-yl)thiomorpholine 1,1-dioxide]",< 100,< 50,≤ 1000,< 500,≤ 1000,< 500,–,–,–,–
"COc1nc2nc(C)nc(N[C@H](C)c3cccc(C(F)(F)F)c3F)c2cc1C1CCN(C(=O)C2CN(C)CCO2)CC1 (stereo partly drawn) [Compound 167, (4-(4-(((R)-1-(2-fluoro-3-(trifluoromethyl)phenyl)ethyl)amino)-7-methoxy-2-methylpyrido[2,3-d]pyrimidin-6-yl)piperidin-1-yl)(4-methylmorpholin-2-yl)methanone]",< 100,< 50,1000 to 10000,–,≤ 1000,–,–,–,–,–
"COc1nc2nc(C)nc(N[C@H](C)c3cccc(C(F)F)c3F)c2cc1C1CCN(C2CCOCC2)CC1 [Compound 337, (R)-N-(1-(3-(difluoromethyl)-2-fluorophenyl)ethyl)-7-methoxy-2-methyl-6-(1-(tetrahydro-2H-pyran-4-yl)piperidin-4-yl)pyrido[2,3-d]pyrimidin-4-amine]",< 100,< 50,≤ 1000,< 500,≤ 1000,< 500,–,–,–,–
"CC(C)N1CCC(c2cc3c(N[C@H](C)c4cccc(C(F)F)c4F)ncnc3nc2OC2CN(C)C2)CC1 [Compound 187, (R)-N-(1-(3-(difluoromethyl)-2-fluorophenyl)ethyl)-6-(1-isopropylpiperidin-4-yl)-7-((1-methylazetidin-3-yl)oxy)pyrido[2,3-d]pyrimidin-4-amine]",< 100,< 50,1000 to 10000,–,1000 to 10000,–,–,–,–,–
"Cc1c([C@@H](C)Nc2ncnc3nc(Cl)c(N4CCN(C(C)C)CC4)cc23)cccc1C(F)(F)F [Compound 395, (R)-7-chloro-6-(4-isopropylpiperazin-1-yl)-N-(1-(2-methyl-3-(trifluoromethyl)phenyl)ethyl)pyrido [2,3-d]pyrimidin-4-amine]",< 100,< 50,≤ 1000,< 500,≤ 1000,< 500,–,–,–,–
Cc1nc(N[C@H](C)c2cccc(C(F)F)c2F)c2cc(C3CCN(C)CC3)c(OCCN(C)C)nc2n1 [Compound 155],–,–,≤ 1000,–,≤ 1000,–,–,–,–,–
"COc1nc2nc(C)nc(N[C@H](C)c3cccc(C(F)(F)C4CCN(C(C)C)CC4)c3F)c2cc1C1(C#N)CC1 [Compound 377, (R)-1-(4-((1-(3-(difluoro(1-isopropylpiperidin-4-yl)methyl)-2-fluorophenyl)ethyl)amino)-7-methoxy-2-methylpyrido[2,3-d]pyrimidin-6-yl)cyclopropane-1-carbonitrile]",–,–,≤ 1000,< 500,≤ 1000,< 500,–,–,–,–
"(R)-4-(4-((1-(3-(2-(2-(dimethylamino)ethoxy)-1,1-difluoroethyl)-2-fluorophenyl)ethyl)amino)-7-methoxy-2-methylpyrido[2,3-d]pyrimidin-6-yl)tetrahydro-2H-thiopyran 1,1-dioxide [Compound 271]",–,–,–,–,–,–,≤ 1000,< 500,≤ 1000,< 500
"COc1nc2nc(C)nc(N[C@H](C)c3cccc(C(F)(F)C4CCN(C)CC4)c3F)c2cc1N1CCN(C(C)C)CC1 [Compound 182, (R)-N-(1-(3-(difluoro(1-methylpiperidin-4-yl)methyl)-2-fluorophenyl)ethyl)-6-(4-isopropylpiperazin-1-yl)-7-methoxy-2-methylpyrido[2,3-d]pyrimidin-4-amine]",–,–,≤ 1000,< 500,≤ 1000,< 500,–,–,–,–
"COc1nc2nc(C)nc(N[C@H](C)c3cccc(C(F)(F)F)c3C)c2cc1C1CCN(C)CC1 [Compound 380, (R)-7-methoxy-2-methyl-N-(1-(2-methyl-3-(trifluoromethyl)phenyl)ethyl)-6-(1-methylpiperidin-4-yl)pyrido[2,3-d] pyrimidin-4-amine]",< 100,< 50,–,< 500,–,–,–,–,–,–
"COc1nc2nc(C)nc(N[C@H](C)c3cccc(C(F)(F)CCC4CN(C(=O)OC(C)(C)C)C4)c3F)c2cc1C1(C#N)CC1 [Compound 208, tert-butyl (R)-3-(3-(3-(1-((6-(1-cyanocyclopropyl)-7-methoxy-2-methylpyrido[2,3-d]pyrimidin-4-yl)amino)ethyl)-2-fluorophenyl)-3,3-difluoropropyl)azetidine-1-carboxylate]",100 to 1000,–,–,–,–,–,–,–,–,–
"Cc1nc(N[C@H](C)c2cccc(C(F)(F)F)c2F)c2cc(N3CCN(C(C)C)CC3)nnc2n1 [Compound 107, (R)—N-(1-(2-fluoro-3-(trifluoromethyl)phenyl)ethyl)-3-(4-isopropylpiperazin-1-yl)-7-methylpyrimido[4,5-c]pyridazin-5-amine]",< 100,–,–,–,–,–,–,–,–,–
"COc1nc2ncnc(N[C@H](C)c3cccc(C(F)(F)F)c3C)c2cc1C1CCN(C)CC1 [Compound 282, (R)-7-methoxy-N-(1-(2-methyl-3-(trifluoromethyl)phenyl)ethyl)-6-(1-methylpiperidin-4-yl)pyrido[2,3-d] pyrimidin-4-amine]",100 to 1000,–,–,–,–,–,–,–,–,–
"Cc1nc(N[C@H](C)c2cccc(C(F)F)c2F)c2cc(C3(C#N)CC3)c(NC3COC3)nc2n1 [Compound 225, (R)-1-(4-((1-(3-(difluoromethyl)-2-fluorophenyl)ethyl)amino)-2-methyl-7-(oxetan-3-ylamino)pyrido[2,3-d]pyrimidin-6-yl)cyclopropane-1-carbonitrile]",100 to 1000,–,–,–,–,–,–,–,–,–
